Values of other authors in patent US11279710B2, “Processes for preparing ACC inhibitors and solid forms thereof” (Gilead Sciences, Inc., priority 2017, dated 2022).

What was measured:
[1] = target: T1, propionyl-CoA carboxylase (Homo sapiens, UniProt P05165+P05166)
T1 sequence (P05165 53-728): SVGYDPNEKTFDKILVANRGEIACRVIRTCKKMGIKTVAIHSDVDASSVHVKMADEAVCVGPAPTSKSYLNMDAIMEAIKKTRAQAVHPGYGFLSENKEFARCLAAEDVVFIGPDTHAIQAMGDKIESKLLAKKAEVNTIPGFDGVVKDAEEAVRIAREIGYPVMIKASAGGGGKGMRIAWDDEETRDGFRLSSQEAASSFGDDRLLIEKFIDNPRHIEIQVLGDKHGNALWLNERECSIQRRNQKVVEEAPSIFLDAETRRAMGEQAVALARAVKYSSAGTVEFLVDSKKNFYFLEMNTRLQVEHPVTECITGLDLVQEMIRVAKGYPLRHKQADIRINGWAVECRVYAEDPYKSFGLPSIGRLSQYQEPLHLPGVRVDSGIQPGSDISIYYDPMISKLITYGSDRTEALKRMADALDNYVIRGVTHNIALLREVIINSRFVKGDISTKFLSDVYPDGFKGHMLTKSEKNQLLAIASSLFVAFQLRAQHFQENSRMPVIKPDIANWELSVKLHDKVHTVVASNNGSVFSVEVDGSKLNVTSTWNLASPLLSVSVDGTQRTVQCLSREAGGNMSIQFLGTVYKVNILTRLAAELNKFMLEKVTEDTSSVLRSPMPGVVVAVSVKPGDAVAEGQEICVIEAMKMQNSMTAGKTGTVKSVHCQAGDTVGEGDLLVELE
T1 sequence (P05166 29-539): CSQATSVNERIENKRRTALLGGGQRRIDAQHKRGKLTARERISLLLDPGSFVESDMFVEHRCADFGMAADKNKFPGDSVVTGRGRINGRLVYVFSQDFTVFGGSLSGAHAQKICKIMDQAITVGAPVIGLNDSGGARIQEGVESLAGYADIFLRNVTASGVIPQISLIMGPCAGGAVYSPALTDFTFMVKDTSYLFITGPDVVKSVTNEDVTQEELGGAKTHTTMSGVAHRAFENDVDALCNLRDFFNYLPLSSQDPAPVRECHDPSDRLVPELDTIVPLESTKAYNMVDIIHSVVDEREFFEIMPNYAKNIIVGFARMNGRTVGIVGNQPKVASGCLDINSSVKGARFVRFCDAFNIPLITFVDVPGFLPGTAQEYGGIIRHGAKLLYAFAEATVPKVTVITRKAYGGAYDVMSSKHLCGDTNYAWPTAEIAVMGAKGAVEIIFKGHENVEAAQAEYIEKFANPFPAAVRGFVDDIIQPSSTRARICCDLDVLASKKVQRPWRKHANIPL

ACC2 = ACC2 isolated from rat, mouse, monkey and human
[2] = rats, acute (46 min) treatment
[3] = tested on: insulin-resistant rat muscle tissue; settings: within 30 min of compound administration
ACC1 = ACC1 isolated from rat, mouse, monkey and human
pyruvate carboxylase = target: T2, pyruvate carboxylase (Homo sapiens, UniProt P11498)
T2 sequence (P11498 21-1178): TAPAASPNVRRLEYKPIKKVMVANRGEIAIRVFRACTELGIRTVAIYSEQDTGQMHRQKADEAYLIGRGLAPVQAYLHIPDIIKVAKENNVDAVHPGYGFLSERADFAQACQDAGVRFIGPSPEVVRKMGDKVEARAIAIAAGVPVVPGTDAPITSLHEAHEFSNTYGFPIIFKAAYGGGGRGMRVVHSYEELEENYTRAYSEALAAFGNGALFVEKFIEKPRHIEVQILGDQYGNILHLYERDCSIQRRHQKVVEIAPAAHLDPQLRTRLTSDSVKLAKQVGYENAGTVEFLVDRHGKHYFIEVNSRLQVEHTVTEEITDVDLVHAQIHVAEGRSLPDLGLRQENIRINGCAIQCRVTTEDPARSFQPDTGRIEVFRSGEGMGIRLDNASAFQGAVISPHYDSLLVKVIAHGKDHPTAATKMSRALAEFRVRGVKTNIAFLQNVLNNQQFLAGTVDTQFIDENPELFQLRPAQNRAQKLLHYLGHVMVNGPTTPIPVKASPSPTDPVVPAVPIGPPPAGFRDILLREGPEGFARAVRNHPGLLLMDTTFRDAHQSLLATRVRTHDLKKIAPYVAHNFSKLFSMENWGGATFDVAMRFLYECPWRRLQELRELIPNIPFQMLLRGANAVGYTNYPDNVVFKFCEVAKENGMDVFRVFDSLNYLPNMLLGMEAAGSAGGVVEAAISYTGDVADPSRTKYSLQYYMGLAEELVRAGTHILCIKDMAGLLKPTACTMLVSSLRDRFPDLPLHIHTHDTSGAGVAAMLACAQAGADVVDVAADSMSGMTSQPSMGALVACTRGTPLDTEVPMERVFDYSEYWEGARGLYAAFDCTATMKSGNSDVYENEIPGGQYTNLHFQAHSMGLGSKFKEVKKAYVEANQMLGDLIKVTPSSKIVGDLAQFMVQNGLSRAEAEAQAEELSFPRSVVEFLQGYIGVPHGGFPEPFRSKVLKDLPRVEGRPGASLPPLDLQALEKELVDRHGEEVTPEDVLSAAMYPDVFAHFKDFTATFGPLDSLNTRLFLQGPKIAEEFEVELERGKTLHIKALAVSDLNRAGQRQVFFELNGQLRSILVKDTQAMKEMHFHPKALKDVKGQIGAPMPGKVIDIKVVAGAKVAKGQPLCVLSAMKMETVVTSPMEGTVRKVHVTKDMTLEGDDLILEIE

[4] = sucrose-fed rats, three weeks

In the case of CO[C@H]1CCCC[C@@H](c2ccccc2)OC(=O)[C@@H](C)[C@@]2(O)O[C@H]([C@@H](C)[C@H](O)[C@H]2OC)[C@@H](C)/C=C/[C@H]1OC [soraphen A], the lipogenesis (human liposarcoma) is given as “inhibited” and the tumor cell growth (human liposarcoma) is given as “inhibited”.
In the case of O=C(c1c2ccccc2cc2ccccc12)N1CCC(N2CCC[C@@H](C(=O)N3CCOCC3)C2)CC1 [CP-640186], the “inhibition of propionyl-CoA carboxylase” value [1] is listed as “without inhibiting”, the IC50 (ACC2) is listed as roughly 60 nM and the FA clearance [2] is listed as “stimulated”. For the same compound, the glucose clearance [2] was “without decreasing”, the insulin sensitivity [3] was “stimulation” and the IC50 (ACC1) was roughly 60 nM. The “inhibition of pyruvate carboxylase” value (pyruvate carboxylase) was “without inhibiting”, the CPT-I activity (Hep-G2 cells) was “increased” and the FA synthesis (Hep-G2 cells) was “reduced”. For the same compound, the apoA1 secretion (Hep-G2 cells) was “without affecting”, the apoB secretion (Hep-G2 cells) was “reduced” and the cholesterol synthesis (Hep-G2 cells) was “without affecting”. For the same compound, the “triglyceride synthesis and secretion” value (Hep-G2 cells) was “reduced”, the FA oxidation (rat muscle slices) was “stimulated” and the “hyperinsulinemia produced by the high sucrose diet” value [4] was “reduced”. The insulin sensitivity [4] was “improved”, the lean body mass [4] was “without reducing” and the leptin levels [4] was “reduced”. For the same compound, the “liver, muscle and adipose triglycerides” value [4] was “time- and dose-dependently reduced”, the plasma glucose levels [4] was “without changing” and the body weight ([4]; due to selective fat reduction) was “reduced”. The “liver and adipose tissue FA synthesis” value (experimental animals) was “reduced”, the “whole body FA oxidation” value (experimental animals) was “increased” and the malonyl-CoA concentration (lipogenic and oxidative tissues, fed and fasted state) was “acutely reduced”. For the same compound, the FA oxidation (C2C12 cells) was “stimulated”.
In the case of COc1ccccc1[C@H](Cn1c(=O)n(C(C)(C)C(=O)O)c(=O)c2c(C)c(-c3ncco3)sc21)OC1CCOCC1 [Compound I, (R)-2-(1-(2-(2-methoxyphenyl)-2-((tetrahydro-2H-pyran-4-yl)oxy)ethyl)-5-methyl-6-(oxazol-2-yl)-2,4-dioxo-1,2-dihydrothieno[2,3-d]pyrimidin-3(4H)-yl)-2-methylpropanoic acid], the ACC inhibitory activity (ACC) is listed as “exhibits ACC inhibitory activity”.
